Measurements as given in US9695219B2, “Polypeptide having antibacterial activity and angiogenesis-inducing activity and wound-healing drug containing said polypeptide” (priority 2009, dated 2017).
Where a SMILES comes first, the peptide text is derived from it. [ ]: non-standard residue; d: D form.

How the values were obtained:
rat cut-wound model = test: Effect to heal cut wounds, wound closing tension; assay type: in vivo; conditions: 500 ng, 5 and 50 μg dropwise once a day, measured on Day 6
Experimental: Next, using rat cut-wound model, the effect of the polypeptides, SR-07 and SR-08, to heal cut wounds in vivo was evaluated. As described in Tetsuaki Yamaura et al. (Oyo Yakuri (Pharmacometrics) 22, 565-579 (1981)), the rat cut-wound model was produced and the wound closing tension was measured.
That is, a cut wound of 30 to 36 mm was made on the back of Crl:CD (SD) rats (male, 7-week old, obtained from Charles River Laboratories Japan, Inc.) using a safety razor, and sutured at 3 points equally spaced. The day when this surgical treatment was applied was regarded as […] (Day 0). Onto the suture site, 50 μL of each of the peptides which were test substances and were respectively prepared to the concentration of 10, 100 and 1000 μg/mL was added dropwise (the added amounts were 500 ng and 5 and 50 μg, respectively). Additions of 50 μL physiological saline were regarded as negative controls (Saline). Each peptide was added dropwise once a day till the day when the measurement of the wound closing tension was carried out. The sutures were removed on Day 3, and the wound closing tension was measured on Day 6.

[1] = system: burn-ulcer model, hairless rats; test: Effect to heal burn ulcers; assay type: in vivo, rat; conditions: 0.2 μg/μL (20 μg/wound), once a day
Experimental: A burn model was produced using 7-week old male hairless rats (HWY/slc), and the healing effect of the polypeptides of the present invention was examined. The burn-ulcer model was produced by contacting a red hot iron (at 100° C., φ12 mm) to the back of each rat for 5 seconds under anesthesia with ether to induce a burn. […] On the day after inducing the burn, the necrotic skin was surgically removed to obtain a burn model. After producing the burn model, the test substance was administered onto the wound site, and a covering was used to cover over that (Day 0). Only a covering was used in the Control. Thereafter, the test substance was administered once a day on every measurement day. And, on Day 6 and Day 8, the change of the area of the wound was measured by calculating measured values from a digital caliper and digital images, and the area where the burns had still not healed was measured to calculate the ratio of it relative to the area where the burns were created (Day 0). The concentration of the test substances were individually 0.2 μg/μL (20 μg/wound).

[2] = Stability in rat serum (HPLC); assay type: in vitro ADME; conditions: 37° C.
Experimental: The stability of the polypeptides in serum was evaluated. In human serum (purchased from KAC Co., Ltd.), or in rat serum obtained by collecting blood from a rat, then leaving the collected blood to stand at room temperature followed by centrifugation, each of the peptides was dissolved so as to attain a final concentration of 500 μg/mL, and the obtained solutions were left to stand at 37° C. After leaving to stand for 3 min or 10 min, these solutions were subjected to HPLC chromatogram analysis to detect peaks of the decomposition products, and calculate the ratio of the concentration of the peptides which remained in the solutions relative to the starting concentration. In addition, the half-lives of the peptides in serum were also calculated.

[3] = system: Normal human dermal fibroblasts (NHDFs); assay type: cell-based
Experimental: Next, the effect of these polypeptides on the growth of human umbilical vein endothelial cells (HUVECs) was studied. A cell growth activity of the polypeptides was examined using Cell Counting Kit (WST-1) available from Dojindo Laboratories. As a negative control (Control), polypeptide-free group was used. Cells (human umbilical vein endothelial cells: HUVECs) were plated in a 96-well plate (0.5×10^4 cells/well/100 μL, serum 1%). About 3 hours after plating the cells, the polypeptides (1, 3, 10, 30 or 100 μg/ml) and FGF (100 ng/ml) as a positive control were individually added thereto in an amount of 100 μL. To the unstimulated group, only a medium was added in an amount of 100 μL. The plate was left to stand in a CO2 incubator for about 48 hours. Thereafter, WST-1 reagent was added to each well in an amount of 20 μL, and then the plate was left to stand in a CO2 incubator for about 2 hours. Absorbances at wavelengths of 450 nm and 620 nm were measured using Wallac 1420 ARVOsx (Program: WST-1). A value of O.D.450-O.D.620 was calculated for each measurement. […] The cell growth activity was evaluated on the basis of the ratio of Net O.D.450 of polypeptide-containing groups relative to Net O.D.450 of the unstimulated group.
Then, the effect on the growth of normal human dermal fibroblasts (NHDFs) was also studied by the same method as described above.

[4] = system: rat infected-wound model (wound infected with Staphylococcus aureus); test: Healing effect in infected wounds; assay type: in vivo; conditions: 50 μg dropwise Days 0-3 with Staphylococcus aureus, followed to Day 10; vs bFGF formulation 3 μg
Experimental: Referring to Stenberg B D et al. (J Surg Res. 1991 January; 50(1):47-50.) and Hayward P et al. (Am J Surg. 1992 March; 163(3):288-93.), a rat infected-wound model was produced as described below. HWY/slc hairless rats (male, 7-week old, obtained from Japan SLC, Inc.) were used. The day before full-thickness defects were created, the number of leukocytes was measured and cyclophosphamide was administered in tail vein (100 mg/kg). On the next day, the number of leukocytes was counted. Only the individuals in which the number of leukocytes was not more than 5000, were used. A square-shaped full-thickness defects of 1.73×1.73 cm (about 3 cm^2) were created on the back of the rats, and 25 μL of Staphylococcus aureus (about 10^5 CFU/25 μL) and SR-07 or SR-08 peptide as a test substance (2 mg/mL) was added dropwise onto the defect sites (the administered amount was 50 μg). On the other hand, 25 μL of the bFGF formulation (3 μg/25 μL) was added dropwise in the bFGF formulation (a positive control) group, and 25 μL of physiological saline was added dropwise in the negative control groups. […] From the day when the full-thickness defects were created to Day 10, the area where the wounds had still not healed was measured to calculate the ratio of it relative to the area where the wounds were created, and the results were shown in graphs (FIG. 9 (SR-07) and FIG. 10 (SR-08)).

CC[C@H](C)[C@H](NC(=O)[C@H](CC(C)C)NC(=O)[C@H](CCCCN)NC(=O)[C@@H](N)CC(C)C)C(=O)N[C@@H](Cc1ccccc1)C(=O)N[C@@H](CC(C)C)C(=O)N[C@@H](Cc1c[nH]cn1)C(=O)N[C@@H](CCCNC(=N)N)C(=O)N[C@@H](CC(C)C)C(=O)N[C@@H](CCCCN)C(=O)N[C@@H](CCCNC(=N)N)C(=O)N[C@@H](CCSC)C(=O)N[C@@H](CCCNC(=N)N)C(=O)N[C@@H](CCCCN)C(=O)N[C@@H](CCCNC(=N)N)C(=O)N[C@@H](CC(C)C)C(=O)N[C@H](CCCCN)C(=O)N[C@@H](CCCNC(=N)N)C(=O)N[C@@H](CCCCN)C(N)=O [SR-08] (H-LKLIFLHRLKRMRKRL[dK]RK-NH2; N-terminus assumed)
Wound closing tension (FIGS. 7 and 8) (rat cut-wound model): the wound closing tension tended to be increased | Healing effect in burn-ulcer model (unhealed area ratio Day 6 and Day 8, FIGS. 14 and 15) [1]: showed a therapeutic effect also in the burn-ulcer model | Ratio of peptide remaining relative to the starting concentration, rat serum, 0 min ([2]; 500 μg/mL, 0 min): 100 | remaining at 0.05 h, 500 μg/mL ([2]; rat, rat serum, 3 min, read-out: Ratio of peptide remaining relative to the starting concentration, rat serum, 3 min): 87% | remaining at 10 min, 500 μg/mL ([2]; rat, rat serum, 10 min, read-out: Ratio of peptide remaining relative to the starting concentration, rat serum, 10 min): 86.9% | half-life ([2]; rat, serum, 500 μg/mL): 1 h | Concentration above which the polypeptide tended to exhibit toxicity, NHDFs (FIG. 4) [3]: > 30000 ng/mL | Healing effect on infected wounds (unhealed area ratio, FIGS. 9 and 10) [4]: showed a higher healing effect on infected wounds than the bFGF formulation
